Assays:
[1] = system: GFP-LC8 trap transfected Cos1/Cos7 cells; experiment: Organelle dispersion and microtubule array in cells expressing the LC8 trap; assay type: cell-based; details: expression of the trap alone, no AP20187
Text: In vivo effect of Dynein LC and IC Traps. As tests for LC function, we evaluated the effects of the traps on early endosome, lysosome, and Golgi distribution, as well as mitotic progression. First, we fused green fluorescent protein (GFP) to the N-terminus of both FKBP-traps to identify transfected cells. Next, we transfected Cos1, Cos7, or HeLa cells with either trap or a GFP-FKBP control and labeled endosomes, lysosomes and Golgi with EEA1, LAMP2 and GM130 markers, respectively (FIGS. 12A-12C). […] The percentage of cells expressing the GFPLC8 or GFP-TcTex1 trap with dispersed endosomes was 14.7±1.5% and 13.3±1.5%, respectively, as compared to 11.7±3.5% and 10.3±3.5% for non-transfected cells and cells that expressed a GFP-FKBP control, respectively. […] After 8 h of treatment with AP20187, we observed greater than 50% dispersion of the three organelle types for each trap.
To ensure the AP20187 concentration was not limiting, we followed the LC8-trap-induced dispersion of lysosomes as a function of AP20187 concentration after 8 h. […] For the TcTex1-trap, we observed efficient endosome, lysosome and Golgi dispersion at AP20187 concentrations of 1 μM or greater.
Kinetic Analysis Separates Dynein Functions. A major purpose for developing these traps is to provide immediate inhibition of protein function and follow the cellular response from this perturbation to gain new insight. Thus, we monitored the fraction of cells with dispersed organelles as a function of time. After induction of dimerization by AP20187, effects on both early endosome and lysosome distribution were detectable at 10 min, and leveled off at ˜2 h (FIGS. 14A-14B). […] The most rapid effect was observed on lysosomes in cells expressing the LC8 trap. In striking contrast, Golgi dispersal using either trap occurred over a much longer time-course, requiring 8 h after induction of dimerization to reach similar levels of dispersion as for endosomes and lysosomes. Twenty-four hours after addition of AP20187, the percentage of cells with dispersed Golgi reached levels greater than 85%.

TcTex1 = experiment: Trap specificity by native PAGE, TcTex1; assay type: binding; details: with or without AP20187 treatment
Text: In addition, there is no evidence that LC8 can bind proteins bearing a TcTex1 sequence or vice versa (e.g., LC8 binds to BimEL, Pak1, nNOS, etc.; TcTex1 binds to Doc2α, PTHR receptor, etc.50).

LC8 = molecular target: T1, LC8 (Homo sapiens, UniProt P63167); experiment: Defective mitotic spindle morphology; assay type: cell-based; details: transfected cells
T1 construct: we monitored the distribution of Golgi in cells subjected to LC8 RNAi; endogenous in cells
Procedure: As a test for effects on cytoplasmic dynein functions that are distinct from vesicular transport, we monitored mitotic behavior in cells expressing either the LC8- or TcTex1-traps. We observed little effect on either mitotic index or the fraction of mitotic cells at discrete mitotic stages with either trap (data not shown). […] Finally, similar studies were carried out using the IC trap. As before, we observed little or no change in the dispersion of endosomes and Golgi apparatus before AP20187 treatment. Induction of dimerization through the addition of AP20187 (1 μM) produced immediate changes in both organelles. After 4 h, 81+4% of cells contained dispersed endosomes and 68+3% of cells contained dispersed Golgi. […] The precise reason for this difference is not clear; however, currently, we attribute this to a change in the cytoskeleton, but this must still be verified. We are also in the process of measuring the effect of sequestering the dynein IC on mitotic behavior.

T1 sequence (P63167 whole entry): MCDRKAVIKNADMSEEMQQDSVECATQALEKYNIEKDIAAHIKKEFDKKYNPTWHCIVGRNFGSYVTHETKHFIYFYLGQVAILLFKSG

Row | binding to TcTex1 (TcTex1) | defective mitotic spindle morphology (LC8) | Substance | percentage of cells with dispersed endosomes [1]
1 | – | – | GFPLC8: green fluorescent protein fused to the N-terminus of the FKBP LC8-trap | 14.7±1.5%
2 | does not bind | 20+2% | LC8-trap: LC8 binding region of the dynein IC (residues 125-137, rat IC2C) fused to the C-terminus of FKBP | –
